The values below come from article PMC8443589, “Modelling human liver fibrosis in the context of non-alcoholic steatohepatitis using a microphysiological system” (Communications Biology, 2021).

Series [1] relates to liver MPS NASH model (PHH, KC and HSC co-cultures). Nature of the series: Cue study: pro-fibrotic biomarkers TIMP-1, pro-collagen 1, fibronectin (Fig 5c). Type of series: cell-based, human. Conditions: for Fibronectin (Fold change in cytokine production compared to control) / Pro-collagen 1 (Fold change in cytokine production compared to control) / TIMP-1 (Fold change in cytokine production compared to control): fat medium + cue. From the text: Assessment of gene expression changes was supplemented by assessment of the secretome produced by NASH microtissues in the MPS after exposure to the various cues. Increased pro-inflammatory cytokine secretion is a defining characteristic in NASH patients, so we conducted a Luminex cytokine array covering 42 different biomarkers, cytokines and chemokines secreted into the culture media of the different microtissues at multiple time points. We consistently detected 27 out of the 42 biomarkers and observed that there was differential expression of cytokines and chemokines driven by the different cues applied to the micro-tissue (Fig. 5a, b). The LPS cue and the presence of higher NPC numbers were responsible for driving the largest increase in cytokine and chemokine release, with the largest increases in cytokines measured on day 14 (Fig. 5b). […] Similarly, to the cytokine production, these changes were not further enhanced by combining cues, as all the cue combinations containing TGFβ had the highest expression (Supp. Fig. 17c).
Fig. 5 Systems biology interrogation of liver MPS NASH model to determine physiologically relevant cues that promote soluble biomarker changes to mimic advanced NASH disease state. PHH, KC and HSC co-cultures were cultured in the MPS platform under a variety of conditions for 14 days to test number of NPCs, presence of fat, fructose, cholesterol, LPS and TGFβ for effects on the soluble biomarker profile of the liver MPS NASH model. Expression of biomarkers, cytokines and chemokines were compared, all concentrations were normalised by Z-transformation to allow comparison and shown relative to mean for each marker (white = not detected). a Cytokine expression compared with varying levels of NPCs; b for the high NPC group in the presence of additional cues; c Expression of pro-fibrotic biomarkers with varying NPC content and with additional varying cues in high NPC condition (additional data in Supp. Fig. 17). d Graphical summary of the changes that occur in the NASH model in the presence of Fat and Fat + TGFβ. All data were generated from a minimum of three independent replicate samples per condition.
The MPS LC12 plates consists of 12 individual bioreactors that contain pneumatically driven micro-pumps to recirculate cell culture medium through a collagen-coated scaffold. Cells were cultured using the protocol previously described[20],[21], but briefly, PHH were seeded at a density of 6 × 10^5 viable cells per well on the LC12 plates with each NPC population (KC and/or HSC) at a density of 6 × 10^4 viable cells per well. Each well contained a final volume of 1.6 mL of medium per well and maintained under a flow rate of 1.0 µL/s. Cells were seeded in Williams E medium containing primary hepatocyte thawing and plating supplements (Life Technologies, USA) and cultured initially under downward flow for 8 h before the flow was automatically reversed to upward flow for the next 16 h of culture. Microtissues were then cultured in either HEP-Lean or HEP-Fat medium, both media’s are proprietary to CN Bio Innovations Ltd. The HEP-Fat medium is a derivative of the HEP-LEAN medium and contains a mixture of saturated and unsaturated FFAs, as well as physiologically relevant quantities of insulin and sugars. Complete media changes were performed on all wells every 48–72 h. For certain experiments, the media was supplemented with additional additives from day 4 onwards: 1 ng/ml LPS (lipopolysaccharides from Escherichia coli O111:B4) (Sigma Aldrich, UK), 1 ng/ml recombinant TGF beta 1 protein (Abcam, UK); 500 µM Fructose (Sigma Aldrich, UK), 50 µg/ml Cholesterol (Sigma Aldrich, UK). […]

For series [2] the test system is unchanged. Nature of the series: Cue study: albumin production (ELISA). In kind it is cell-based, human.
On the set-up of series [3]: method as in PMID 27743502. Conditions: cited from earlier work.

As to “TGFβ: recombinant TGF beta 1 protein (Abcam), 1 ng/ml cue”, in series [1] (Day 6, high NPC), the “Fibronectin (Fold change in cytokine production compared to control)” value was 1.218, the “Pro-collagen 1 (Fold change in cytokine production compared to control)” value was found to be 1.954 and the “TIMP-1 (Fold change in cytokine production compared to control)” value came out at 2.132. In series [1] (Day 11, high NPC), the “Fibronectin (Fold change in cytokine production compared to control)” value was determined as 1.379, the “Pro-collagen 1 (Fold change in cytokine production compared to control)” value came out at 1.672 and the “TIMP-1 (Fold change in cytokine production compared to control)” value was 1.0946. Further, in series [1] (Day 14, high NPC), the “Fibronectin (Fold change in cytokine production compared to control)” value was found to be 0.05285, the “Pro-collagen 1 (Fold change in cytokine production compared to control)” value came out at 0.4105 and the “TIMP-1 (Fold change in cytokine production compared to control)” value was 0.9486. Also, the “pro-collagen 1, fibronectin and TIMP-1 expression” value in series [1] (cue study) is given as “most significant increases”. In series [2], the “Albumin production” value is “reduced albumin production”.
For the compound `CC[C@H]1[C@@H](O)[C@@H]2[C@H](CC[C@]3(C)[C@@H]([C@H](C)CCC(=O)O)CC[C@@H]23)[C@@]2(C)CC[C@@H](O)C[C@@H]12` [Obeticholic acid], in series [3], the Plasma protein binding is over 99%.
